For data set [1] the following is noted: 0.04% compound 358 of Class D and/or 0.05% fenofibrate in diet.
Description: Male C57BL/6 mice were housed in individually ventilated cages under controlled temperature (21° C.), humidity (45-65%) and light (12 h-12 h reverse light/dark cycle; Lights on—6 PM-6 AM). Mice were set on 60 kcal % fat energy diet until their average body weight was over 45 grams, at which time they were switched to a 45 kcal % fat diet.
For the purpose of Tests A, B and C, the mice were moved into modified type-2 cages with: doublewide food cup, wire grids and a tissue for bedding for several months before experiment to adapt to new housing/feeding conditions. Food (Research diets 45 kcal % diet D12451—see Scheme A) was provided in powdered form in a food hopper located off the front of the cage. […]
The mice were weighted the day before trial onset. […] The food intake the day before trial onset was also measured. […]
Food cups were filled and weighted daily during the experiment. Body weight was recorded every 2nd or 3rd day.
Food Intake and Body Weight data were analyzed using General Linear Models procedures appropriate for a 2×2 factorial design with blocking and repeated measures. […] Results were expressed as means±SEM (standard error of the mean). […]
The next data set addresses T1, human DGAT1 (Homo sapiens, UniProt O75907).
T1 construct: FLAG (N); made in house; host or cells: SF9 insect cells (pFastBac / baculovirus); total cell membranes
T1 sequence (O75907 1-488): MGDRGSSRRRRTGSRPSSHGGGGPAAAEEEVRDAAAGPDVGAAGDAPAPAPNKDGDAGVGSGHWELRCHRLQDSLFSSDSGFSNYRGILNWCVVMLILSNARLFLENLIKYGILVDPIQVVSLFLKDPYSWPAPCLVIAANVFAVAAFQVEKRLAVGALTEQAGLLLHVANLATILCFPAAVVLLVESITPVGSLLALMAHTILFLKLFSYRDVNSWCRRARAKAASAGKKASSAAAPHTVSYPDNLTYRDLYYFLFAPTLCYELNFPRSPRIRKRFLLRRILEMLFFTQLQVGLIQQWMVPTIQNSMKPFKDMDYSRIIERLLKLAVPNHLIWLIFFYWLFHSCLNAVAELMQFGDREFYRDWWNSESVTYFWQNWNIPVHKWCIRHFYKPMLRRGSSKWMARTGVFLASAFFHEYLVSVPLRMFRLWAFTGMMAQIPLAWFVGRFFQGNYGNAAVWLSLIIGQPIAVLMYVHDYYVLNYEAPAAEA
Description: DGAT1 FlashPlate assay: inhibition of DGAT1 activity in membrane preparations. In kind it is biochemical. Conditions: human DGAT1 membranes from SF9 cells, [3H]-oleoylCoA, 120 min at 37° C.; read-out: pIC50 (-logIC50, 50% inhibition of DGAT1 activity) (converted). The source says: The inhibiting activity of compounds of Class A, Class B, Class C and Class D on DGAT1 activity was screened in a single well procedure assay using DGAT1 comprising membrane preparations and DGAT1 substrate comprising micelles and determining formed radio-active triacylglycerol coming in close proximity of a flashplate surface by radioluminescence.
Said assay is described in full detail in WO2006/067071, the content of which is incorporated herein by reference.
By DGAT1 activity is meant the transfer of coenzyme A activated fatty acids to the 3-position of 1,2-diacylglycerols, thus forming a triglyceride molecule, by enzyme DGAT1.
human DGAT1 (NM012079.2) was cloned into the pFastBac vector, containing translation start, a FLAG-tag at the N-terminus as described in literature and a viral Kozak sequence (AAX) preceding the ATG to improve expression in insect cells. Expression was done as described in literature (Cases, S., Smith, S. J., Zheng, Y., Myers H. M., Lear, S. R., Sande, E., Novak, S., Collins, C., Welch, C. B., Lusis, A. J., Erickson, S. K. and Farese, R. V. (1998) Proc. Natl. Acad. Sci. USA 95, 13018-13023.) using SF9 cells.
72h transfected SF9 cells were collected by centrifugation (13000 rpm-15 min-4° C.) and lysed in 2×500 ml lysisbuffer (0.1M Sucrose, 50 mM KCl, 40 mM KH2PO4, 30 mM EDTA pH 7.2. Cells were homogenized by cell disruptor. After centrifugation 1380 rpm-15 min-4° C. (SN discarded), pellet was resuspended in 500 ml lysisbuffer and total cell membranes collected by ultracentrifugation at 34000 rpm(100 000 g) for 60 min (4° C.). The collected membranes were resuspended in lysis buffer, divided in aliquots and stored with 10% glycerol at −80° C. until use.
• a) 1,2-dioleoyl-sn-glycerol, 10 mg/ml (1,2-diacylglycerol (DAG)) Dissolve in acetonitrile; evaporate the acetonitrile solution under nitrogen and reconstitute in chloroform at a final concentration of 10 mg/ml. • b) L-α-phosphatidylcholine, 1 mg/ml (phosphatidylcholine (PC)) • Dissolve in chloroform at a final concentration of 1 mg/ml and store at 4° C. • c) L-α-phosphatidyl-L-serine, 1 mg/ml (phophatidylserine (PS)) • Dissolve in chloroform at a final concentration of 1 mg/ml and store at 4° C. Method
Add 1 ml dioleoyl-sn-glycerol (10 mg/ml) to 10 ml of L-α-phosphatidylcholine (1 mg/ml) and 10 ml of L-α-phosphatidyl-L-serine (1 mg/ml) in a thick glass recipient. Evaporate under nitrogen and put on ice for 15 min Reconstitute in 10 ml Tris/HCl (10 mM, pH 7.4) by sonication on ice. The sonification process includes sonification cycles of 10 seconds in the sonification bath followed by 10 seconds cool down on ice and repeating this sonification cycle till a homogeneous solution is obtained (takes about 15 min). The thus obtained micelles are stored at −20° C. till later use and contain DAG at a final concentration of 1.61 mM.
• a) Assaybuffer • 50 mM Tris-HCl (pH 7.4), 150 mM MgCl2, 1 mM EDTA, 0.2% BSA. • b) N-ethylmaleimide, 5M • Dissolve 5 g into a final volume of 8 ml DMSO 100% and store at −20° C. in aliquots till later use. • c) Substrate mix (for 1 384 well plate=3840 μl) • 612 μl micelles stock (51 μM final) • 16.6 μl oleoylCoA 9.7 mM • 23 μl [^3H]-oleoylCoA (49 Ci/mmol, 500 μCi/ml) • 3188.4 μl Tris pH 7.4, 10 mM • d) Enzyme mix (for 1 384 well plate=3520 μl) (5 μg/ml) • Add 11.73 μl of DGAT membrane stock (1500 μg/ml stock) to 3508 μl assay buffer. • e) Stop mix (for 1 384 well plate=7.68 ml) (250 mM) • Add 384 μl of N-ethylmaleimide (5M) to 3.456 ml DMSO 100%, and further dilute 3.84 ml of said solution with 3.84 ml DMSO 10%. Method
DGAT activity in membrane preparations was assayed in 50 mM Tris-HCl (pH 7.4), 150 mM MgCl2, 1 mM EDTA and 0.2% BSA, containing 50 μM DAG, 32 μg/ml PC/PS and 8.4 μM [^3H]-oleoylCoA (at a specific activity of 30 nCi/well) in a final volume of 50 μl in 384-well format using the red shifted Basic Image FlashPlate™ (Perkin Elmer Cat.No. SMP400). […]

A short description of data set [2]: Test A: food intake, body weight and serum biochemistry, DGAT inhibitor, fenofibrate or both in diet. In kind it is in vivo, DIO C57BL/6 mice. Conditions: 12 day trial, 45 kcal % fat diet; for cumulative food intake less than the control group: 0.04% D and/or 0.05% F in diet, only D+F significant (P<0.05). The text has this: Diet was provided in powder form.
At the end of test A, blood was collected under isoflurane anesthesia for serum biochemistry determinations.

Read-outs that look alike come from different tables or passages of the source.

As to `COc1cc(CNC(=O)c2ccc(N3CCN(C(=O)Cc4c(Cl)cc(CN5CCCC5)cc4Cl)CC3)cc2)cc(OC)c1` [358-Class D, 4-[4-[[2,6-dichloro-4-(1-pyrrolidinylmethyl)phenyl]acetyl]-1-piperazinyl]-N-[(3,5-dimethoxyphenyl)methyl]-benzamide], the melting point lay within 199 to 200 °C. The “21 days body weight change compared to controls (2x2 factorial)” value in data set [1] (main effects P<0.05, interaction P>0.05) was “gained less weight than controls”. Also, the “daily food intake compared to control mice” value in data set [1] (45 kcal % fat diet, n=8/group) is “not significantly less than control mice”. For the same molecule, the IC50 on human DGAT1 was 25.7 nM.
For the molecule `COc1ccc(CC(=O)Nc2ccc(N3CCN(C(=O)Nc4c(Cl)cc(CN5CCCC5)cc4Cl)CC3)cc2)cc1` [compound 223 of Class D], the “cumulative food intake less than the control group” value in data set [2] came to 3.2%. In data set [2] (0.04% compound 223 of Class D (D) and/or 0.05% fenofibrate (F) in diet), the “daily food intake compared to control mice” value is listed as “not significantly less than control mice”.
Regarding `CC(C)OC(=O)C(C)(C)Oc1ccc(C(=O)c2ccc(Cl)cc2)cc1` [fenofibrate, reference compound], the “cumulative food intake less than the control group” value in data set [2] came to 7.5%.
For the molecule `CS(=O)(=O)N1CCN(Cc2cc(Cl)c(CC(=O)N3CCN(c4ccc(C(=O)NCc5cccc(N6CCCC6)c5)cc4)CC3)c(Cl)c2)CC1` [363-Class D, 4-[4-[[2,6-dichloro-4-[[4-(methylsulfonyl)-1-piperazinyl]methyl]phenyl]acetyl]-1-piperazinyl]-N-[[3-(1-pyrrolidinyl)phenyl]methyl]-benzamide], the melting point was in the range of 241 to 243 °C. The IC50 at human DGAT1 was 11.5 nM.
For `COc1ccc(CC(=O)Nc2ccc(N3CCN(C(=O)Cc4ccc(CN5CCCC5)cc4Cl)CC3)cc2)cc1` [355-Class D, N-[4-[4-[[2-chloro-4-(1-pyrrolidinylmethyl)phenyl]acetyl]-1-piperazinyl]phenyl]-4-methoxy-benzeneacetamide], the melting point lay within 153.3 to 155.2 °C. In addition, the IC50 on human DGAT1 was 912 nM.
In the same order, the values of `COc1cc(CNC(=O)c2ccc(N3CCN(C(=O)Cc4c(Cl)cc(CN5CCN(C(C)=O)CC5)cc4Cl)CC3)cc2)cc(OC)c1` [362-Class D, 4-[4-[[4-[(4-acetyl-1-piperazinyl)methyl]-2,6-dichlorophenyl]acetyl]-1-piperazinyl]-N-[(3,5-dimethoxyphenyl)methyl]-benzamide] are 123 to 126 °C and 9.12 nM.
The corresponding values for `CC(=O)N1CCN(Cc2cc(Cl)c(CC(=O)N3CCN(c4ccc(C(=O)NCc5cccc(N6CCCC6)c5)cc4)CC3)c(Cl)c2)CC1` [361-Class D, 4-[4-[[4-[(4-acetyl-1-piperazinyl)methyl]-2,6-dichlorophenyl]acetyl]-1-piperazinyl]-N-[[3-(1-pyrrolidinyl)phenyl]methyl]-benzamide] are 164 to 166 °C and 13.5 nM.
With `O=C(Nc1cccc(N2CCCC2)c1)c1ccc(N2CCN(C(=O)C(O)c3ccc(CN4CCCC4)cc3Cl)CC2)cc1` (centres unmarked) [152-Class C, 4-[4-[[2-chloro-4-(1-pyrrolidinylmethyl)phenyl]hydroxyacetyl]-1-piperazinyl]-N-[3-(1-pyrrolidinyl)phenyl]-benzamide], the melting point lay within 138.7 to 140.9 °C. At human DGAT1, the IC50 was 35.5 nM.

The term melting point denotes the temperature of the solid-liquid transition.

For the origin of these results see patent US9107946B2, “Drug combinations comprising a DGAT inhibitor and a PPAR-agonist” (Janssen Pharmaceutica NV, priority 2008, dated 2015).
